The compounds below were run against T1, LXRα (Homo sapiens, UniProt Q13133) (assay: Co-transfection assay (LXR/LXRE luciferase reporter), LXRα). Settings: CV-1 cells transfected with hLXRα and LXRE luciferase reporter; agonist activity; read-out: EC50 value against LXRα.
T1 construct: expressed in transfected cells; host or cells: CV-1 African green monkey kidney cells (ATCC CCL-70)
T1 sequence (Q13133 1-447): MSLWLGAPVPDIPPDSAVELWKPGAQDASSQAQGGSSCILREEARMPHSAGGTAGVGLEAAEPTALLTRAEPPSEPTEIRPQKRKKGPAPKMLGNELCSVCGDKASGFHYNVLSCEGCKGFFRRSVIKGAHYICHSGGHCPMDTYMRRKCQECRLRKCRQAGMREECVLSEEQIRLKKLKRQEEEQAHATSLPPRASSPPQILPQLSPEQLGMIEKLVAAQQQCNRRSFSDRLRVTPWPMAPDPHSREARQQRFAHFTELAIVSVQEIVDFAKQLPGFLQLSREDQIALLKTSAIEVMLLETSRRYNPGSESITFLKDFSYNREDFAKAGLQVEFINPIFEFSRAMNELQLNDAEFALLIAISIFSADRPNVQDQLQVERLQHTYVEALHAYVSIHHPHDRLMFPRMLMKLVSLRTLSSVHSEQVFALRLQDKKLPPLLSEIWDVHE
T1 sequence (P19793 1-462 partner): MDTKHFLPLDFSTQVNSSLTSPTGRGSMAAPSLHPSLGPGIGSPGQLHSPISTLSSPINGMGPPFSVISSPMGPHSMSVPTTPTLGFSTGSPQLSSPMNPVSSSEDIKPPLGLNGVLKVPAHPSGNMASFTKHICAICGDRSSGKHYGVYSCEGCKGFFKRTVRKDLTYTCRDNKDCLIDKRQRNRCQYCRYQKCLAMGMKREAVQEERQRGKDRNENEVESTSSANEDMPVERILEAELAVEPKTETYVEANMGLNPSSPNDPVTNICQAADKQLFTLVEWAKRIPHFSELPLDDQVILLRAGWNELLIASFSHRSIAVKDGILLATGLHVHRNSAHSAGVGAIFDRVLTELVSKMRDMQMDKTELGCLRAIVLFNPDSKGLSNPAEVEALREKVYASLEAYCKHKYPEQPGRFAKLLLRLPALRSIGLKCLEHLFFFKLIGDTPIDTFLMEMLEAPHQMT
Type: cell-based
Description: The effect of activating or inhibiting LXR transcription activity of a test compound can be measured by a co-transfection which is a cell-based assay. LXR is known to function by forming a heterodimer with RXR. In a co-transfection assay, LXR and RXR expression plasmids and a luciferase reporter expression plasmid containing three copies of an LXR-RXR heterodimer-responding DNA sequence are first inserted into mammalian cells by transient transfection. Next, when the transfected cells are treated with a test compound having LXR agonist activity, the transcription activating effect of LXR is enhanced, and the LXR agonist activity of a test compound can be measured as an increase in luciferase activity.
(1) CV-1 African green monkey kidney cells (ATCC CCL-70)
(2) Co-transfection expression plasmid, pcDNA-hLXRα or pcDNA-hLXRβ, reporter (LXREx3-pTAL-Luc Vector)
(3) Lipofect AMINE, Plus Reagent (Invitrogen) transfection reagent
(4) Cell lysis buffer [Passive lysis buffer; 5× (Promega Corporation) is diluted with distilled water]
(5) Luciferase assay reagent (Promega Corporation)
(6) Medium (Dulbecco's Modified Eagle Medium (Gibco) 500 ml, Gentamicin Reagent Solution (Gibco) 2.5 ml, 2 mM L-Gluta Max I Supplement (Gibco) 5.0 ml, MEM Sodium pyruvate solution (Gibco) 5.0 ml, penicillin-streptomycin (Gibco) 5.0 ml, charcoal/dextran-treated FBS (HyClone) 50 ml) (7) OPTI-MEM I Reduced-Serum Medium (Gibco) Adjustment of Screening Reagents
The aforementioned CV-1 cells were disseminated into a 96-well assay plate (Costar 3610) to a concentration of 2×10^4 cells/[…]/well followed by incubating overnight at 37° C.
DNA transfection was carried out according to the protocol provided with the transfection reagent. 10 μl of OPTI-MEM I Reduced-Serum Medium (Gibco) and 0.5 μl of Lipofect AMINE (Invitrogen) were added to two 50 ml tubes followed by shaking the mixed solutions to obtain Solution A. The substances of (1) below were respectively added to each tube followed by shaking the mixed solutions and allowing to stand undisturbed for 15 minutes to obtain Solution B. In addition, Solution C was obtained by carrying out the same procedure using the substances of (2) below.
(1) 10 μl of OPTI-MEM I Reduced-Serum Medium, 1 μl of Plus Reagent (Invitrogen) and 0.1 μg of DNA [PCMX-LXRα (33 ng) and LXRE (66 ng)];
(2) 10 μl of OPTI-MEM I Reduced-Serum Medium, 1 μl of Plus Reagent (Invitrogen) and 0.1 μg of DNA [PCMX-LXRβ (33 ng) and LXRE (66 ng)].
The entire amount of the aforementioned Solution A was respectively added to the aforementioned Solution B followed by shaking and allowing to stand undisturbed for 15 minutes to obtain LXRα solution. In addition, LXRβ solution was obtained by carrying out the same procedure using the aforementioned Solutions C and A.
After removing the medium from the 96-well assay plate used to Incubate the CV-1 cells as described above by decanting, and completely removing any moisture, 50 μl/well of OPTI-MEM I Reduced-Serum Medium were added to each well followed by addition of the aforementioned LXRα solution or LXRβ solution to each well at 20 μl/well and incubating for 3 hours at 37° C.
Three hours later, 20% charcoal FBS-DMEM was added to each well at 70 μl/well. FBS-DMEM used for the medium was prepared by mixing charcoal and dextran-treated FBS at a ratio of 9:1. Next, test compounds adjusted to concentrations of 1 mM, 0.3 mM, 0.1 mM, 30 μM, 10 μM, 3 μM, 1 μM or 0 μM with DMSO were added to each well at 1.4 μl/well. […]

**Q.** With `CC(C)(C)OC(=O)c1c(COc2ccc(-c3ccc(CC(=O)O)cc3)c(F)c2)ccc(C(F)(F)F)c1O` [Example 14, (4′-{[2-(tert-Butoxycarbonyl)-3-hydroxy-4-(trifluoromethyl)benzyl]oxy}-2′-fluoro-1,1′-biphenyl-4-yl)acetic acid] as the compound, how does the EC50 read?
**A.** ≤ 5 µM

**Q.** Which EC50 does the source give for `CC(C)(C)OC(=O)c1c(COc2ccc(-c3ccc(C4(C(=O)O)CC4)cc3)cc2)ccc(C(F)(F)F)c1O` [Example 15, 1-(4′-{[2-(tert-Butoxycarbonyl)-3-hydroxy-4-(trifluoromethyl)benzyl]oxy}-1,1′-biphenyl-4-yl)cyclopropanecarboxylic acid] here?
**A.** ≤ 5 µM

**Q.** `CN(C)C(=O)Cc1ccc(-c2ccc(OCc3ccc(C(F)(F)F)c(O)c3C(=O)OC(C)(C)C)cc2)cc1` [Example 49, tert-Butyl 6-[({4′-[2-(dimethylamino)-2-oxoethyl]-1,1′-biphenyl-4-yl}oxy)methyl]-2-hydroxy-3-(trifluoromethyl)benzoate] was tested. Which EC50 did it give?
**A.** ≤ 5 µM

**Q.** How did the EC50 turn out when `CNC(=O)Cc1ccc(-c2ccc(OCc3ccc(C(F)(F)F)c(O)c3C(=O)OC(C)(C)C)cc2)cc1` [Example 50, tert-Butyl 2-hydroxy-6-[({4′-[2-(methylamino)-2-oxoethyl]-1,1′-biphenyl-4-yl}oxy)methyl]-3-trifluoromethylbenzoate] was run?
**A.** ≤ 5 µM

**Q.** `CC(C)(C)OC(=O)c1c(COc2ccc(-c3cc(CC(=O)O)ccc3F)cc2)ccc(C(F)(F)F)c1O` [Example 52, (4′-{[2-(tert-Butoxycarbonyl)-3-hydroxy-4-(trifluoromethyl)benzyl]oxy}-6-fluoro-1,1′-biphenyl-3-yl)acetic acid] was tested. Which EC50 did it give?
**A.** ≤ 5 µM
